Reference: PubChem BioAssay (NCI)
Values joined by “and” are separate entries in the source; they are usually repeats but may differ in a detail not shown here. Equal entries are not always repeated.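 Dose response: 5 concentrations. Exposure: 48 h. Format: 96-well plates. Endpoint: linear interpolation; highest concentration if not reached. GI50 is the concentration that inhibits growth by half. TGI is the concentration that stops growth completely.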

Key:
Assay in all cases: DTP human tumour cell line panel, 48 h
[1] = tested on: UACC-257 melanoma
[2] = tested on: NCI-H460 lung
[3] = tested on: OVCAR-5 ovarian
[4] = tested on: M14 melanoma
[5] = tested on: NCI/ADR-RES ovarian
[6] = tested on: HT29 colon
[7] = tested on: RPMI-8226 leukemia
[8] = tested on: BT-549 breast
[9] = tested on: HL-60(TB) leukemia

Row | Structure (SMILES) | TGI [1] | TGI [2] | TGI [3] | TGI [4] | TGI [5] [µM] | TGI [6] | TGI [7] | TGI [8] [µM] | TGI [9] [µM] | GI50 [2] | GI50 [7] [nM] | GI50 [4] | GI50 [6] | GI50 [1] [nM] | GI50 [3] [nM] | GI50 [9] [nM] | GI50 [5] [µM]
1 | COc1ccc(C2C(=O)c3c(OC)cc(OC)cc3OC2c2cccnc2)cc1 (stereo not given) | > 100 µM | > 100 µM | > 100 µM | > 100 µM | > 100 | > 100 µM |  |  |  |  |  |  |  |  |  |  | 
2 | CC(C)=CC[C@]12CCN(C)[C@H]1N(S(=O)(=O)c1ccccc1)c1ccccc12 | > 89.6 µM | > 73.5 µM | > 100 µM |  | > 100 | > 100 µM | > 73 µM | > 100 | > 74.6 |  |  |  |  |  |  |  | 
3 | COC(=O)c1cc(OC)c(OC)c(OC)c1-c1cc2c(cc1C=O)OCO2 | > 10 µM | > 10 µM | > 10 µM | > 10 µM | > 10 | > 10 µM | > 10 µM | > 10 | > 10 |  |  |  |  |  |  |  | 
4 | O=C1CSC(c2cccc(Cl)c2)N1c1ccc(-c2ccc(-n3c(-c4ccccc4)nc4ccccc4c3=O)cc2)cc1 (stereo not given) | > 100 µM | > 100 µM | > 100 µM | > 100 µM | > 100 | > 100 µM | > 100 µM | 80.3 | > 100 |  |  |  |  |  |  |  | 
5 | O=C(O)/C=C/c1ccc2c(c1)CC1(Cc3ccccc3C1)C2 | > 100 µM |  | > 100 µM | > 100 µM | > 100 | > 100 µM | > 100 µM |  | 90.5 |  |  |  |  |  |  |  | 
6 | CN(CCc1ccccn1)C(=S)N/N=C(\c1ccccc1)c1ccccn1 | 1.94 µM | 7.07 µM | 7.88 µM | 8.43 µM |  | 2.77 µM | 2.14 µM |  | > 100 |  |  |  |  |  |  |  | 
7 | [N-]=[N+]=CC(=O)OCCCCl | > 100 µM | > 100 µM | > 100 µM |  |  | > 100 µM | > 100 µM | > 100 | > 100 |  |  |  |  |  |  |  | 
8 | CC(=O)NC1=NC(=O)/C(=C/c2ccc(/C=C3/C(=O)N=C(NC(C)=O)N3C)cc2)N1C | > 100 µM | > 100 µM | > 100 µM | > 100 µM | > 100 | > 100 µM |  | > 100 | > 100 |  |  |  |  |  |  |  | 
9 | Cc1c2c(n(CC(c3ccccc3)c3ccccc3)c1C)NN=C(C#N)S2(=O)=O | > 100 µM | > 100 µM | > 100 µM | > 100 µM | > 100 | > 100 µM | > 100 µM | > 100 |  |  |  |  |  |  |  |  | 
10 | O=c1[nH]c(NCc2ccc(Cl)cc2)nc2nc[nH]c12 | > 100 µM | > 100 µM | > 100 µM | > 100 µM | > 100 | > 100 µM | > 100 µM | > 100 |  |  |  |  |  |  |  |  | 
11 | C/C(=N\Nc1nc2ccccc2s1)c1cc2ccccc2cn1 | 57.8 µM | 33.7 µM | 54.5 µM | 23.2 µM | 42 | 11 µM | > 100 µM | 45.8 |  |  |  |  |  |  |  |  | 
12 | C[C@@H]1CC(=O)C[C@@H]2CC[C@H]3[C@@H]4CC[C@H](OC(=O)c5cccc6cc7ccccc7nc56)[C@H]4CC[C@@H]3[C@H]21 | 30.8 µM | 30.8 µM | 34.9 µM | 31.6 µM | 55.1 | 29.3 µM |  | 59.1 |  |  |  |  |  |  |  |  | 
13 | OC1COC2CC(Nc3ccccn3)OC12 (stereo not given) | > 100 µM | > 100 µM | > 100 µM | > 100 µM | > 100 | > 100 µM | > 100 µM | > 100 |  |  |  |  |  |  |  |  | 
14 | O=C1CN(c2cccc(Cl)c2)C(=O)CN1NCNN1CC(=O)N(c2cccc(Cl)c2)CC1=O | > 100 µM | > 100 µM | > 100 µM | > 100 µM |  | > 100 µM | > 100 µM | > 100 | > 100 |  |  |  |  |  |  |  | 
15 | CCOC(=O)C1(C#N)CC1 | > 100 µM | > 100 µM | > 100 µM | > 100 µM | > 100 | > 100 µM |  | > 100 | > 100 |  |  |  |  |  |  |  | 
16 | C=C(Cl)C(Cl)(CCl)CCC(Br)C(C)(C)Br (stereo not given) |  |  | > 10 µM | > 10 µM |  | > 10 µM | > 10 µM | > 10 | > 10 |  |  |  |  |  |  |  | 
17 | Brc1cccc(C2ON=C(c3ccccc3)N2C23CC4CC(CC(C4)C2)C3)c1 (stereo not given) | > 10 µM | > 10 µM | > 10 µM | > 10 µM | > 10 | > 10 µM | > 10 µM | > 10 |  |  |  |  |  |  |  |  | 

Row | Structure (SMILES) | TGI [1] | TGI [2] | TGI [3] | TGI [4] | TGI [5] [µM] | TGI [6] | TGI [7] | TGI [8] [µM] | TGI [9] [µM] | GI50 [2] | GI50 [7] [nM] | GI50 [4] | GI50 [6] | GI50 [1] [nM] | GI50 [3] [nM] | GI50 [9] [nM] | GI50 [5] [µM]
18 | Br[C@@H]1[C@H]2c3nc4ccccc4nc3[C@@H]1C[C@H]2Br | > 100 µM | > 100 µM | > 100 µM | > 100 µM | > 100 | > 100 µM |  | > 100 | > 100 |  |  |  |  |  |  |  | 
19 | CC1=C(C)CC2(C=C(C(C)(C)C)C(=O)C(C(C)(C)C)=C2)SC1 | > 100 µM | > 100 µM | 35.7 µM | 99.4 µM | 39.4 | 43 µM | 33.8 µM |  | 64.6 |  |  |  |  |  |  |  | 
20 | CC(C)C1=CC(=O)[C@@](C)(C2[C@H](O)C[C@@]3(C)[C@@H]4CC=C5[C@@H](CC[C@@H](OC6OCC(O)C(O)C6OC6OC(C)C(O)C(O)C6O)C5(C)C)[C@]4(C)C(=O)C[C@]23C)O1 (stereo not given in full) |  | > 100 µM | > 100 µM | > 100 µM | > 100 | > 100 µM | > 100 µM | > 100 |  |  |  |  |  |  |  |  | 
21 | CN(C)c1ccc(/C=C/c2sc3ccccc3[n+]2C)cc1 | 7.85 µM and 11.9 µM | 5.28 µM and 7.85 µM | 26.6 µM and 61.5 µM | 16.2 µM and 3.29 µM | > 100 | 11.8 µM and 12 µM | 0.719 µM and 4.19 µM |  |  | 1880 nM and 744 nM | 355 | 3660 nM and 427 nM | 2710 nM and 1140 nM |  |  |  | 
22 | COc1cc(-c2c3c(cc4c2OCO4)[C@@H](Nc2ccc(-c4ccc(-c5ccc(N[C@@H]6c7cc8c(cc7C(c7cc(OC)c(O)c(OC)c7)[C@H]7C(=O)OC[C@H]67)OCO8)cc5)cc4)cc2)[C@H]2COC(=O)[C@@H]2C3)cc(OC)c1O (stereo not given in full) | 80.4 µM | 10.7 µM | 17 µM | 4.11 µM | 5.92 | 5.62 µM |  | 6.76 |  |  |  |  |  |  |  |  | 
23 | Nc1nc(Cl)c(Cl)c(NCC2(O)CCC2)n1 | > 100 µM | > 100 µM | > 100 µM |  | > 100 | > 100 µM | > 100 µM | > 100 | > 100 |  |  |  |  |  |  |  | 
24 | O=C(Nc1ccc(S(=O)(=O)/N=c2\ncccn2C(=O)C(C(F)(F)F)C(F)(F)F)cc1)C(C(F)(F)F)C(F)(F)F | > 100 µM | > 100 µM | > 100 µM | > 100 µM | > 100 | > 100 µM | > 100 µM |  | > 100 |  |  |  |  |  |  |  | 
25 | O=C(/C=C(\C(=O)c1cccs1)c1cccs1)c1ccc(C(=O)/C=C(\C(=O)c2cccs2)c2cccs2)cc1 | > 100 µM | > 100 µM |  | > 100 µM | > 100 | > 100 µM | > 100 µM |  | > 100 |  |  |  |  |  |  |  | 
26 | COC(=O)C1OC(O[C@H]2CC[C@]3(C)[C@H]4CC=C5[C@@H]6CC(C)(C)CC[C@]6(C(=O)OC6OCC(O)C(O)C6OC6OC(C)C(OC7OCC(O)C(O)C7O)C(OC7OCC(O)(CO)C7O)C6O)[C@H](O)C[C@@]5(C)[C@]4(C)CC[C@H]3C2(C)C)C(O)C(O)C1O (stereo not given in full) | 11.5 µM | 34.3 µM | 13.4 µM | 7.41 µM | 18.2 | 7.16 µM | > 31.1 µM | 6.55 |  |  |  |  |  |  |  |  | 
27 | COC(=O)C1(SC)C2CCC3C2CCC31 (stereo not given) | > 100 µM | > 100 µM | > 100 µM | > 100 µM | > 100 |  | > 100 µM | > 100 | > 100 |  |  |  |  |  |  |  | 
28 | CCCCCCCCCCCCCCCCNc1ccn(C2CC(O)C(COC(c3ccccc3)(c3ccccc3)c3ccc(OC)cc3)O2)c(=O)n1 (stereo not given) |  | > 100 µM | > 100 µM | > 100 µM | > 100 | > 100 µM | > 100 µM | > 100 | > 100 |  |  |  |  |  |  |  | 
29 | CC(C)(NC(=O)OCc1ccccc1)C(=O)OC(=O)C(C)(C)NC(=O)OCc1ccccc1 |  | > 100 µM | > 100 µM | > 100 µM | > 100 | > 100 µM | > 100 µM | > 100 |  |  |  |  |  |  |  |  | 
30 | C=C1C(=O)O[C@H]2C[C@@H]1[C@@H](O)[C@H](O)[C@@H](C)CCCC(C)=CCC[C@@]2(C)O | 36.4 µM | 54.1 µM | 51.3 µM | 29.8 µM |  |  | 45.3 µM | 25.9 | > 100 |  |  |  |  |  |  |  | 
31 | CCOC(=O)c1c(SC(=O)c2ccc(OC)cc2)n(-c2ccccc2)c(=S)n(-c2ccccc2)c1=O | > 100 µM | > 100 µM | > 100 µM | 83.2 µM | > 100 | > 100 µM |  |  | 70.2 |  |  |  |  |  |  |  | 
32 | COc1nc2ccc(COc3ccc(C(=O)O)cc3)cc2nc1OC | > 100 µM | > 100 µM | > 100 µM | > 100 µM | > 100 | > 100 µM |  |  | > 100 |  |  |  |  |  |  |  | 
33 | COc1cc2c(cc1OC)C(=O)/C(=C/c1cc(C)cc(C)c1)C2 | > 100 µM | 5.1 µM | > 86.4 µM | > 100 µM | > 38 | 0.835 µM | > 42.6 µM | 60.4 |  |  |  |  |  |  |  |  | 
34 | CCCCCCCCCCCCCC[n+]1ccc(C)cc1 | 2.48 µM | 2.23 µM | 5.18 µM | 1.25 µM | 37 | 1.82 µM | 2.37 µM |  | 1.19 | 994 nM | 426 | 345 nM | 356 nM | 763 | 1140 | 338 | 11.8
